Laboratory results as given in patent US9718790B2, “Triazine derivative and pharmaceutical composition having an analgesic activity comprising the same” (SHIONOGI & CO., LTD., priority 2010, dated 2017).

How the values were obtained:
CYP3A4 = CYP3A4 (Homo sapiens (Human), UniProt P08684); test: CYP3A4 fluorescent MBI test; assay type: in vitro ADME; settings: substrate 7-BFC, pre-reaction time 0 or 30 minutes
Method: The CYP3A4 fluorescent MBI test is a test of investigating enhancement or CYP3A4 inhibition of a compound by a metabolism reaction, and the test was performed using, as CYP3A4 enzyme expressed in Escherichia coli and employlng, as an index, a reaction in which 7-benzyloxytrifluoromethylchmarin (BFC) is debenzylated by the CYP3A4 enzyme to produce a metabolite, 7-hydroxytrifluoromethylchmarin (HFC) emitting fluorescent light.
The reaction conditions were as follows: substrate, 5.6 μmol/L 7-BFC; pre-reaction time, 0 or 30 minutes; reaction time, 15 minutes; reaction temperature, 25° C.
An enzyme in a K-Pi buffer (pH 7.4) and a test drug solution as a pre-reaction. solution were added to a 96-well plate at the composition of the pre-reaction, a part of it was transferred to another 96-well plate so that it was 1/10 diluted by a substrate in a K-Pi buffer, NADPH as a co-factor was added to initiate a reaction as an index (without preincubation) and, after a predetermined time of a reaction, acetonitrile:0.5 mol/L Tris (trishydroxyaminomethane)=4:1 was added to stop the reaction. […] For the plate on which each index reaction had been performed, a fluorescent value of 7-HFC which is a metabolite was measured with a fluorescent plate reader. […]

[1] = tested on: partial sciatic nerve ligation model in rats; test: Analgesic effect in a Seltzer model, Evaluation (1): mechanical allodynia, von Frey filaments; assay type: in vivo; settings: rat, oral single administration, at 3 hours, read-out: analgesic effect, percent reversal of mechanical allodynia
Text: Rats were anaesthetized using isoflurane/O2 inhalation anaesthesia. After induction of anesthesia, the left thigh was shaved. An incision was made in the skin just below the hip bone. The muscle was bluntly dissected to expose the sciatic nerve. One third (⅓) to one half (½) of the sciatic nerve thickness was tightly ligated and the wound was closed. The right thigh is used as a sham-operated control. The right thigh undergoes an identical procedure with the left hind limb, however, the sciatic nerve is not manipulated or ligated.
Two weeks after nerve ligation, the effect on mechanical allodynia was assessed using a series of von Frey filaments. For habituation, the rats were placed into a plastic cage on a wire mesh bottom. The mechanical sensitivity (mechanical threshold) of the hind paws was estimated with a series of von Frey filaments (0.4-20 g). The measurement of mechanical sensitivity of the right and left hind paws was performed to obtain predose mechanical sensitivity. The rats showing thee threshold change from 0.6 to 2 g (in nerve ligated side) and 8 to 15 g (in sham operated side) were used in the experiments. On the day belone the experiment, the rats were evaluated with a series of von Frey filaments to familiarize them with the test procedure. The adopted animal was administrated with the test compounds. The test compounds were homogenized with mortar and pestle and suspended or diluted in 0.5% Methyl Cellulose to prepare 0.1-2.0 mg/mL/kg suspension and orally administered to rat using a syringe attached with a sonde. Post-dose mechanical sensitivities of the right and left hind paws were measured at approximately 1 to 5 hours after drug administration. Percent reversal of mechanical allodynia for each rat was calculated using the following formula. The analgesic effects of the compounds were compared.

Chain of CYP3A4 (P08684 whole entry): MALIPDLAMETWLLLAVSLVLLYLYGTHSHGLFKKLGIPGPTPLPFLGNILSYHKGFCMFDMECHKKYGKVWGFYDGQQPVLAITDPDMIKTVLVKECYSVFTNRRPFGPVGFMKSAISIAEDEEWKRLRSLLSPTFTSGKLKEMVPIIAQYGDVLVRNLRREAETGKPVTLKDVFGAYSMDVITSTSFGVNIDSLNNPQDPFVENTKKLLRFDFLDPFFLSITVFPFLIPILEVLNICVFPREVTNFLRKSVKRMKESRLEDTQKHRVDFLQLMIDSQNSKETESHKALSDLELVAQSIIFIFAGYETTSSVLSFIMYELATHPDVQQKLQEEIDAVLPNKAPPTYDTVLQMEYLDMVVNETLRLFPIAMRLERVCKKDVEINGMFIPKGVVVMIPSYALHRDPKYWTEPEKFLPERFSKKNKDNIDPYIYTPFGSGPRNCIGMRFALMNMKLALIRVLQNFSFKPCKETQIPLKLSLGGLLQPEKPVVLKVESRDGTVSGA

SMILES | IC50 (CYP3A4) [µM] | inhibition in vivo at 3 mg/kg [1] [%]
C[C@@H](Cn1c(=O)[nH]/c(=N\c2ccc(OCC3CC3)cc2)n(Cc2ccc(Cl)cc2)c1=O)C(=O)O [Compound I-0837] | ≤ 3 | 
O=c1[nH]/c(=N\c2ccc(Oc3ccon3)cc2)n(Cc2ccc(Cl)cc2)c(=O)n1CC(CO)CO [Compound I-2291] |  | > 30
